The values below come from paper PMC12584752, “Covalent fragment screening to inhibit the E3 ligase activity of bacterial NEL enzymes SspH1 and SspH2” (RSC Chemical Biology, 2025).

Settings in all cases: live HEK293T cells, 50 μM, four hours
In experiment [1] the target is T1, SspH1 expressed in HEK293T cells (Salmonella typhimurium, UniProt D0ZVG2).
T1 construct: SspH1 (aa 1–700) and SspH2 (aa 1–786) genes were cloned separately; expressed in transfected cells; host or cells: HEK293T
The experiment can be described thus: In cellulo target engagement, IA-DTB chemoproteomics. The format is cell-based. As for the experimental part: (§1) Fig. 5 Characterisation of protein interactions by compounds 6 and 7. (A) SspH1 and SspH2 catalytic cysteine labelling with compound 6 (100–3.125 μM, 4 hours) in HEK293T lysate spiked with recombinant SspH1 and SspH2. Data are presented as mean ± SEM, n = 4. The curves were fitted with GraphPad Prism 10 using four parameter nonlinear regression with baseline correction to DMSO-treated samples. (B) SspH1 and SspH2 catalytic cysteine labelling with compound 7 (100–3.125 μM, 4 hours) in HEK293T lysate spiked with recombinant SspH1 and SspH2. Data are presented as mean ± SEM, n = 4. The curves were fitted with GraphPad Prism 10 using four parameter nonlinear regression with baseline correction to DMSO-treated samples. (C) Volcano plot of IA-DTB competition in SspH1 expressing HEK293T cells treated with compound 6 (50 μM, 4 hours). (D) Volcano plot of IA-DTB competition in SspH2 expressing HEK293T cells treated with compound 6 (50 μM, 4 hours). Data is shown as compared to DMSO treated samples, with competed peptides in the upper left-hand quadrant. […]
(§2) All cells were grown in DMEM media (Gibco, 41966-029) supplemented with FBS (ThermoFisher, A5256701) and Pen/Strep (Gibco, 15140-122) at 37 °C with 5% CO2. […] Protein concentrations were measured using a Rapid BCA Gold Protein Assay Kit (Thermo Scientific, A53226) and diluted to 1 mg mL^−1 with lysis buffer. […]

Experiment [2] addresses T2, SspH2 expressed in HEK293T cells (Salmonella typhimurium, UniProt D0ZPH9).
T2 construct: SspH1 (aa 1–700) and SspH2 (aa 1–786) genes were cloned separately; expressed in transfected cells; host or cells: HEK293T
The description is as above. The format is cell-based. As for the experimental part: as §1, §2

Experiment [3] relates to mammalian proteins in HEK293T cells. The experiment can be described thus: In cellulo IA-DTB chemoproteomics, off-target engagement. It counts as cell-based, human. As for the experimental part: as §1, §2

T2 sequence (D0ZPH9 1-786): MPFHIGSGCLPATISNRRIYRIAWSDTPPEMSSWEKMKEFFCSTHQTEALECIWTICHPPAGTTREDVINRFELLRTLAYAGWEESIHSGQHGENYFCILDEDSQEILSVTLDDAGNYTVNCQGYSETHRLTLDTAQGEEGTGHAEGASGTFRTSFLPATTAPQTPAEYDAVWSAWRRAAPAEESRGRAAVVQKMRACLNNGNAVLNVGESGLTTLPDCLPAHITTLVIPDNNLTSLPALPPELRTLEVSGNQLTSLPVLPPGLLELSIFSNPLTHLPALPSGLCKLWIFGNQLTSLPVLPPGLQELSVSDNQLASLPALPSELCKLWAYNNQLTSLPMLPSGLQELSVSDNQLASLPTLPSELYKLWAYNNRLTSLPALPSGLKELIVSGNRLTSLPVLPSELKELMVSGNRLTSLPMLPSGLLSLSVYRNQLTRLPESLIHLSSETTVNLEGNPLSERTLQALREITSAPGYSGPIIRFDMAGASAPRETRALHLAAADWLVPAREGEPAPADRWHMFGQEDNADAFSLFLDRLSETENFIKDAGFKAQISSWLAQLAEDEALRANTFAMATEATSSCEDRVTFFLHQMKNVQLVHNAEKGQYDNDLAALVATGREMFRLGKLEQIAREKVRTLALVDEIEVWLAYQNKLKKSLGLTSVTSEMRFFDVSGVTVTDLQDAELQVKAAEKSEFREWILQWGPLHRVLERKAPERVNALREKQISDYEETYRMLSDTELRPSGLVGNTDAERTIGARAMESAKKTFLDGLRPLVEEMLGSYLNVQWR
T1 sequence (D0ZVG2 whole entry, the tested form may be a part): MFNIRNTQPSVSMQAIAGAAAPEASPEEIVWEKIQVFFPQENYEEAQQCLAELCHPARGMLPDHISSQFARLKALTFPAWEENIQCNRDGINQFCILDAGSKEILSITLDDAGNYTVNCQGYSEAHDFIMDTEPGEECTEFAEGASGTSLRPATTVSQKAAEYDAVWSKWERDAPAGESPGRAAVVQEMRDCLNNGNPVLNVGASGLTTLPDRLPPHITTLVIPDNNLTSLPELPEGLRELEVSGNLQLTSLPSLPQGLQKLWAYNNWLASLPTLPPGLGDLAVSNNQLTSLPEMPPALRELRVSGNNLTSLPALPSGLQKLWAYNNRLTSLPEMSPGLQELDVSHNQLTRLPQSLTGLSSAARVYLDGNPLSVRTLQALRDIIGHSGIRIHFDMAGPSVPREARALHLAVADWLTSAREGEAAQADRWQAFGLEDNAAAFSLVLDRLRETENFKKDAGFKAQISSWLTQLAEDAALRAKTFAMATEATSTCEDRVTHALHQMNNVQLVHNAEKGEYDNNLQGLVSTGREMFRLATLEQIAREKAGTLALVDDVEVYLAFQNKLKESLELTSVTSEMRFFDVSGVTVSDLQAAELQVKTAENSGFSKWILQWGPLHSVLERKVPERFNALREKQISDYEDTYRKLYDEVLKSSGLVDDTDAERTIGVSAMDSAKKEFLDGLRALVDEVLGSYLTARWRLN

In the case of `Cc1cc(-c2nc3ccccc3n2C2CCN(C(=O)CCl)CC2)cc(C)c1O.Cl` [compound 6], the “competition of IA-DTB labelling of catalytic cysteine C492 peptide of SspH1” value in experiment [1] was “strong competition”. For the same compound, the “competition of IA-DTB labelling of C580 peptide of SspH2” value in experiment [2] is given as “strong competition”. In addition, in experiment [3], the “engagement of catalytic cysteines-containing peptides of HECT or RBR E3 ligases, or DUBs” value is reported as “none” and the “engagement of mammalian proteins” value is “engagement of multiple mammalian proteins”.
